Measured values published in patent US6448442B1, “Contrast media” (Amersham Health AS, priority 1999, dated 2002).

Assay: Viscosity in aqueous solution at 20° C. (Example 82, Tables 1 and 2)
Type: physicochemical
Details: for Viscosity 350 mgI/ml (CALCULATED): calculated for 350 mgI/ml; for Viscosity at 400 mgI/ml (CALCULATED): calculated for 400 mgI/ml
Protocol: The viscosities in aqueous solution at 20° C. for some further compounds described above were determined and are listed in Table 2. […]

Viscosity 350 mgI/ml (CALCULATED)	Viscosity at 400 mgI/ml (CALCULATED)	Structure (SMILES)	other results
–	19.4 mPas	O=C(NC(CO)(CO)CO)c1c(I)c(CO)c(I)c(N(CCO)C(=O)CO)c1I [Example 55, 5-[N′-(2-Hydroxyethyl)-hydroxyacetamido]-3-hydroxymethyl-N-[tris-(hydroxymethyl)-methyl]-2,4,6-triiodobenzamide]	Viscosity 20° C. (concentration 429 mgI/ml): 28 mPas
–	14.3 mPas	O=C(C(O)CO)N(CCO)c1c(I)c(CCO)c(I)c(N(CCO)C(=O)C(O)CO)c1I (centres unmarked) [Example 62, 3,5-Bis[N-(2-hydroxyethyl)-2,3-dihydroxypropionylamino]-2,4,6-triiodo-(2-hydroxyethyl)benzene]	Viscosity 20° C. (concentration 353 mgI/ml): 9 mPas
8.3 mPas	13.0 mPas	O=C(Nc1c(I)c(CC(O)CO)c(I)c(NC(=O)C(O)CO)c1I)C(O)CO (centres unmarked) [Example 64, 3,5-Bis-(2,3-dihydroxypropionylamino)-2,4,6-triiodo-(2,3-dihydroxy-propyl)-benzene]	Viscosity 20° C. (concentration 419 mgI/ml): 16 mPas
10.4 mPas	17.8 mPas	CC(O)C(=O)N(CCO)c1c(I)c(CO)c(I)c(C(=O)NC(CO)C(O)CO)c1I (centres unmarked) [Example 65, 5-[N′-(2-Hydroxyethyl)-2-hydroxypropionylamino]-3-hydroxymethyl-N-(1,3,4-trihydroxybut-2-yl)-2,4,6-triiodobenzamide]	Viscosity 20° C. (concentration 413 mgI/ml): 21 mPas
9.3 mPas	15.2 mPas	O=C(NCCO)c1c(I)c(CO)c(I)c(N(CC(O)CO)C(=O)C(O)CO)c1I (centres unmarked) [Example 66, 5-[N′-(2,3-Dihydroxypropyl)-2,3-dihydroxypropionylamino]-3-hydroxymethyl-N-(2-hydroxyethyl)-2,4,6-triiodobenzamide]	Viscosity 20° C. (concentration 401 mgI/ml): 15 mPas
–	16.2 mPas	O=C(CO)Nc1c(I)c(CO)c(I)c(C(=O)N(CC(O)CO)CC(O)CO)c1I (centres unmarked) [Example 67, 5-(hydroxyacetamido)-3-hydroxymethyl-N,N-bis-(2,3-dihydroxy-propyl)-2,4,6-triiodobenzamide]	Viscosity 20° C. (concentration 407 mgI/ml): 18 mPas
–	19.1 mPas	O=C(c1c(I)c(CO)c(I)c(N(CCO)C(=O)CO)c1I)N(CC(O)CO)CC(O)CO (centres unmarked) [Example 68, 5-[N′-(2-Hydroxyethyl)-hydroxyacetamido]-3-hydroxymethyl-N,N-bis-(2,3-dihydroxypropyl)-2,4,6-tiiodobenzamide]	Viscosity 20° C. (concentration 450 mgI/ml): 31 mPas
–	17.0 mPas	CC(O)C(=O)Nc1c(I)c(CO)c(I)c(C(=O)N(CC(O)CO)CC(O)CO)c1I (centres unmarked) [Example 69, 5-(2-Hydroxypropionylamino)-3-hydroxymethyl-N,N-bis-(2,3-dihydroxypropyl)-2,4,6-triiodobenzamide]	Viscosity 20° C. (concentration 417 mgI/ml): 21 mPas
–	27.8 mPas	O=C(c1c(I)c(CO)c(I)c(N2CCCC(O)C2=O)c1I)N(CC(O)CO)CC(O)CO (centres unmarked) [Example 70, 5-(3-Hydroxy-2-oxo-1-piperidinyl)-3-hydroxymethyl-N,N-bis-(2,3-dihydroxypropyl)-2,4,6-triiodobenzamide]	Viscosity 20° C. (concentration 361 mgI/ml): 16 mPas
6.0 mPas	8.8 mPas	O=C(CO)Nc1c(I)c(CC(O)CO)c(I)c(NC(=O)CO)c1I (centres unmarked) [Example 71, 3,5-Bis-(Hydroxyacetamido)-2,4,6-triiodo-(2,3-dihydroxypropyl)benzene]	Viscosity 20° C. (concentration 455 mgI/ml): 14 mPas
7.2 mPas	11.0 mPas	O=C(CO)Nc1c(I)c(CC(O)CO)c(I)c(N(CCO)C(=O)CO)c1I (centres unmarked) [Example 72, 5-Hydroxyacetamido-3-[N-(2-hydroxyethyl)-hydroxyacetamido]-2,4,6-triiodo-(2,3-dihydroxypropyl)benzene]	Viscosity 20° C. (concentration 432 mgI/ml): 15 mPas

Further lines, the compound ahead of its results:

Structure (SMILES)	Viscosity 350 mgI/ml (CALCULATED)	Viscosity at 400 mgI/ml (CALCULATED)	other results
O=C(NCC(O)CO)c1c(I)c(CO)c(I)c(N(CCO)C(=O)C(O)CO)c1I (centres unmarked) [Example 30, 5-[N′-(2-Hydroxyethyl)-2,3-dihyroxypropionylamino]-3-hydroxymethyl-N-(2,3-dihydroxypropyl)-2,4,6-triiodobenzamide]	13.4 mPas	23.3 mPas	Viscosity 20° C. (concentration 391 mgI/ml): 21 mPas; Viscosity (iodine concentration 391 mgI/mL): 21 mPas
CC(CO)(CO)C(=O)Nc1c(I)c(CO)c(I)c(C(=O)NCC(O)CO)c1I (centres unmarked) [Example 32, 5-(3-Hydroxy-2-methyl-2-hydroxymethyl-propionylamino)-3-hydroxymethyl-N-(2,3-dihydroxypropyl)-2,4,6-triiodobenzamide]	–	17.4 mPas	Viscosity 20° C. (concentration 403 mgI/ml): 18 mPas; Viscosity (iodine concentration 403 mgI/mL): 18 mPas
O=C(NCC(O)CO)c1c(I)c(CO)c(I)c(NC(=O)C(CO)(CO)CO)c1I (centres unmarked) [Example 33, 5-(3-Hydroxy-2,2-dihydroxymethyl-propionylamino)-3-hydroxymethyl-N-(2,3-dihydroxypropyl)-2,46-triiodobenzamide]	–	22.9 mPas	Viscosity 20° C. (concentration 370 mgI/ml): 16 mPas; Viscosity (iodine concentration 370 mgI/mL): 16 mPas
O=C(NC(CO)C(O)CO)c1c(I)c(CO)c(I)c(N(CCO)C(=O)CO)c1I (centres unmarked) [Example 35, 5-[N′-(2-Hydroxyethyl)-hydroxyacetamido]-3-hydroxymethyl-N-(1,3,4-trihydroxybut-2-yl)-2,4,6-triiodobenzamide]	9.6 mPas	15.5 mPas	Viscosity 20° C. (concentration 394 mgI/ml): 15 mPas; Viscosity (iodine concentration 394 mgI/mL): 15 mPas
O=C(NC(CO)C(O)CO)c1c(I)c(CO)c(I)c(N(CC(O)CO)C(=O)CO)c1I (centres unmarked) [Example 36, 5-[N′-(2,3-Dihydroxypropyl)-hydroxyacetamido]-3-hydroxymethyl-N-(1,3 4-trihydroxybut-2-yl)-2,4.6-triiodobenzamide]	10.6 mPas	17.7 mPas	Viscosity 20° C. (concentration 382 mgI/ml): 15 mPas; Viscosity (iodine concentration 382 mgI/mL): 15 mPas
CC(O)C(=O)Nc1c(I)c(CO)c(I)c(C(=O)NC(CO)C(O)CO)c1I (centres unmarked) [Example 37, 5-(2-Hydroxypropionylamino)-3-hydroxymethyl-N-(1,3,4-tri-hydroxybut-2-yl)-2,4,6-triiodobenzamide]	–	15.6 mPas	Viscosity 20° C. (concentration 398 mgI/ml): 16 mPas; Viscosity 20° C. (concentration 458 mgI/ml): 30 mPas; Viscosity (iodine concentration 458 mgI/mL): 30 mPas
O=C(NC(CO)C(O)CO)c1c(I)c(CO)c(I)c(N(CCO)C(=O)C(O)CO)c1I (centres unmarked) [Example 39, 5-[N′-(2-Hydroxyethyl)-2,3-dihydroxypropionylamino]-3-hydroxymethyl-N-(1,3,4-trihydroxybut-2-yl)-2,4,6-triiodobenzamide]	12.0 mPas	20.4 mPas	Viscosity 20° C. (concentration 372 mgI/ml): 15 mPas; Viscosity (iodine concentration 372 mgI/mL): 15 mPas
O=C(c1c(I)c(CO)c(I)c(N(CCO)C(=O)CO)c1I)N(CCO)CCO [Example 41, 5-[N′-(2-Hydroxyethyl)-hydroxyacetamido]-3-hydroxymethyl-N,N-bis(2-hydroxyethyl)-2,4,6-triiodobenzamide]	–	12.0 mPas	Viscosity 20° C. (concentration 508 mgI/ml): 40 mPas
O=C(Nc1c(I)c(CO)c(I)c(C(=O)N(CCO)CCO)c1I)C(O)CO (centres unmarked) [Example 42, 5-(2,3-Dihydroxypropionylamino)-3-hydroxymethyl-N,N-bis(2-hydroxyethyl)-2,4,6-triiodobenzamide]	–	12.8 mPas	Viscosity 20° C. (concentration 488 mgI/ml): 34 mPas
O=C(c1c(I)c(CO)c(I)c(N(CCO)C(=O)C(O)CO)c1I)N(CCO)CCO (centres unmarked) [Example 43, 5-[N′-(2-Hydroxyethyl)-2,3-dihydroxypropionylamino]-3-hydroxy-methyl-N,N-bis (2-hydroxyethyl)-2,4,6-triiodobenzamide]	–	14.2 mPas	Viscosity 20° C. (concentration 488 mgI/ml): 42 mPas
CN(CC(O)CO)C(=O)c1c(I)c(CCO)c(I)c(NC(=O)CO)c1I (centres unmarked) [Example 44, 5-Hydroxyacetamido-3-hydroxyethyl-N-methyl-N-(2,3-dihydroxy-propyl)-2,4,6-triiodobenzamide]	–	10.8 mPas	Viscosity 20° C. (concentration 481 mgI/ml): 24 mPas
CN(CC(O)CO)C(=O)c1c(I)c(CO)c(I)c(N(CCO)C(=O)CO)c1I (centres unmarked) [Example 45, 5-[N′-(2-Hydroxyethyl)-hydroxyacetamido]-3-hydroxymethyl-N-methyl-N-(2,3-dihydroxypropyl)-2,4,6-triiodobenzamide]	–	13.9 mPas	Viscosity 20° C. (concentration 483 mgI/ml): 32 mPas
CN(CC(O)CO)C(=O)c1c(I)c(CO)c(I)c(NC(=O)C(O)CO)c1I (centres unmarked) [Example 46]	–	16.4 mPas	Viscosity 20° C. (concentration 474 mgI/ml): 41 mPas
CN(CC(O)CO)C(=O)c1c(I)c(CO)c(I)c(N(CCO)C(=O)C(O)CO)c1I (centres unmarked) [Example 47, 5-[N′-(2-Hydroxyethyl)-2,3-dihydroxypropionylamino]-3-hydroxymethyl-N-methyl-N-(2,3-dihydroxypropyl)-2,4,6-triiodobenzamide]	–	16.4 mPas	Viscosity 20° C. (concentration 447 mgI/ml): 28 mPas
O=C(NC(CO)CO)c1c(I)c(CO)c(I)c(N(CCO)C(=O)CO)c1I [Example 49, 5-[N′-(2-Hydroxyethyl)-hydroxyacetamido]-3-hydroxymethyl-N-(1,3-dihydroxyprop-2-yl)-2,4,6-triiodobenzamide]	–	13.2 mPas	Viscosity 20° C. (concentration 380 mgI/ml): 11 mPas
O=C(NCCO)c1c(I)c(CO)c(I)c(NC(=O)C(O)CO)c1I (centres unmarked) [Example 52, 5-(2,3-Dihydroxypropionylamino)-3-hydroxymethyl-N-(2-hydroxyethyl)-2,4,6-triiodobenzamide]	–	9.8 mPas	Viscosity 20° C. (concentration 514 mgI/ml): 29 mPas
